Source: publication PMC4111603 (PLoS ONE, 2014)

Tests used:
Ovine COX-1 = biological target: T1, Ovine COX-1 (Ovis aries, UniProt P05979); assay: COX-1 oxygenation of arachidonic acid, oxygen electrode; format: biochemical; conditions: for COX-1 activity (% of control): 10 µM AA, initial activity 10-30 s, mean ± s.e.m., n = 3; for inhibition at 300 µM: 300 µM compound
T1 construct: purchased Cayman Chemical Co. 60100
T1 sequence (P05979 25-600): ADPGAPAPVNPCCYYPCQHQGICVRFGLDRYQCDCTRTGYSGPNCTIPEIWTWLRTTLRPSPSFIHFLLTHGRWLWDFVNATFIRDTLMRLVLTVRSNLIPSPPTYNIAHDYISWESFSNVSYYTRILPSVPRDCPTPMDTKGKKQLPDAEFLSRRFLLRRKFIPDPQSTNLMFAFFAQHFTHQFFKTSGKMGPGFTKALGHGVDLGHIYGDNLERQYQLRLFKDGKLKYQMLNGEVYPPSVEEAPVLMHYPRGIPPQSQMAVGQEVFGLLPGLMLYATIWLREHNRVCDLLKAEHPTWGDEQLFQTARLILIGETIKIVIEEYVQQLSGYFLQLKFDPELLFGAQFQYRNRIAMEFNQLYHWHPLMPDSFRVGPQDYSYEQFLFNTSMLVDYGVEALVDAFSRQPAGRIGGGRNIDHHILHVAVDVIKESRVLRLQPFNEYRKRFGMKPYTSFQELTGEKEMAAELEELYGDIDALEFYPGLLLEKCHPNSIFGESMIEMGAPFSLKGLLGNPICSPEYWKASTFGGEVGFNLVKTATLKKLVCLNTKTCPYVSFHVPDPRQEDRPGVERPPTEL
Experimental: (§1) The assay was performed according to Meade et al. with minor modifications using an oxygen electrode chamber with integral stirring (Oxygraph System, Hansatech Instruments, King’s Lynn, U.K.). The electrode was calibrated to ambient temperature and air pressure. Samples were prepared in 0.1 M Tris-HCl buffer pH 7.4 containing 1 µM haematin, 2 mM phenol, 5 mM EDTA, 10 µM substrate (AA or 2-AG) (final assay volume was 2 ml). After addition of test substance dissolved in DMSO (final assay concentration 1%) a baseline was established for 5 min before initiation of reaction by addition of 200 units COX-1 or COX-2. Change in oxygen consumption was monitored for approximately 5 min.
(§2) FAAH inhibition was calculated using log(inhibitor) vs. response with variable slope (four parameters) algorithm in the GraphPad Prism computer program (GraphPad Software Inc., San Diego, CA. USA). […] The two curves were compared by Akaike’s informative criteria and the best fit was chosen. Initial COX activities were calculated as the change in oxygen tension between 10 and 30 seconds after addition of enzyme.

human recombinant COX-2 = biological target: T2, human recombinant COX-2 (Homo sapiens, UniProt P35354); assay: COX-2 oxygenation of 2-AG, oxygen electrode; format: biochemical; conditions: for COX-2 activity (% of control): substrate 2-AG 10 µM, initial activity 10-30 s, n = 3
T2 construct: purchased Cayman Chemical Co. 60122
T2 sequence (P35354 18-604): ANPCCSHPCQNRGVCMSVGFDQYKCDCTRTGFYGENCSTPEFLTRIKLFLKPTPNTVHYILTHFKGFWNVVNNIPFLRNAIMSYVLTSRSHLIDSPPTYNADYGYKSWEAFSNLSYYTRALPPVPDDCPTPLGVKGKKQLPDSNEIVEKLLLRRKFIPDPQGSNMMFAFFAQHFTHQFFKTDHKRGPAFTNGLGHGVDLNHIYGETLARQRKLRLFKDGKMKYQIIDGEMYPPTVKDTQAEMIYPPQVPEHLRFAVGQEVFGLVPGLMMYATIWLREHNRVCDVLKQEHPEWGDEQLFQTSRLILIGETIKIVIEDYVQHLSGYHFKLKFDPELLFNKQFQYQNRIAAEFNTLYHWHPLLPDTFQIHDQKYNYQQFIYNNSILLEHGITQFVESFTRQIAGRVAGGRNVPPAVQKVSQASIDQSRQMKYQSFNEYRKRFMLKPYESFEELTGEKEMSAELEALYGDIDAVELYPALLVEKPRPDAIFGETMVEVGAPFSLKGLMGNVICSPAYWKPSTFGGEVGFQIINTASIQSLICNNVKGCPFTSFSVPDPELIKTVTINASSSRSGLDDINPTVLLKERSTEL
Experimental: as §1, §2

[1] = read-out: inhibition of COX-1-catalysed oxygenation of arachidonic acid

Row | Compound | COX-1 activity (% of control) (Ovine COX-1; 100 µM NSAID) | COX-1 activity (% of control) (Ovine COX-1; 300 µM NSAID) | inhibition at 300 µM (Ovine COX-1; [1]) | COX-1 activity (% of control) (Ovine COX-1; 1000 µM NSAID) | COX-2 activity (% of control) (human recombinant COX-2; 100 µM NSAID) | COX-2 activity (% of control) (human recombinant COX-2; 300 µM NSAID) | inhibition at 100 µM (Ovine COX-1; 100 µM compound, read-out: inhibition of COX-1-catalysed oxygenation of arachidonic acid) | inhibition at 1000 µM (Ovine COX-1; 1000 µM compound, read-out: inhibition of COX-1-catalysed oxygenation of arachidonic acid) | COX-2 activity (% of control) (human recombinant COX-2; 30 µM NSAID) | inhibition of cyclooxygenation of 2-AG (human recombinant COX-2; 30 µM compound) | inhibition of cyclooxygenation of 2-AG (human recombinant COX-2; 100 µM compound) | inhibition of cyclooxygenation of 2-AG (human recombinant COX-2; 300 µM compound) | inhibition of COX-2-catalysed oxygenation of 2-AG at longer incubation times (human recombinant COX-2; lower potency than the parent compound, initial inhibition (10-30 s) only modestly affected)
1 | CC(C(=O)O)c1ccc(CC(C)(C)O)cc1 (stereo not shown) [2′-OH-Ibuprofen, 2-[4-(2-hydroxy-2-methylpropyl)phenyl]propionic acid] | 102±17 % of control | 91±5 % of control | 9% | 95±3 % of control | 125±24 % of control | 115±21 % of control |  |  |  |  |  |  | 
2 | CC(C(=O)O)c1ccc(-c2ccc(O)cc2)c(F)c1 (stereo not shown) [4′-OH-Flurbiprofen] | 97±31 % of control | 72±20 % of control | 28% | 6±6 % of control | 24±4 % of control | −6±9 % of control | 3% | 94% | 39±11 % of control | partially | partially | completely | 
3 | CC(CO)Cc1ccc(C(C)C(=O)O)cc1 (stereo not shown) [3′-OH-Ibuprofen, 2-[4-(3-hydroxy-2-methylpropyl)phenyl]propionic acid] | 81±16 % of control | 97±10 % of control | 3% | 68±15 % of control | 73±14 % of control | 91±2 % of control |  |  |  |  |  |  | retained the ability of ibuprofen to inhibit
